Experimental data published in US20260241046A1, “PROSTATE-SPECIFIC MEMBRANE ANTIGEN RECEPTOR-TARGETING RADIOPHARMACEUTICALS AND USES THEREOF” (Nuclidium AG, priority 2024, published 2026).

Legend:
LNCaP cells = assay: In vitro efflux rate; format: cell-based, human; conditions: for Cell-associated fraction, With competitor: 100-fold excess DOTAGA-PSMA I&T
Description: Efflux-rate assays were performed on 6-well plates pre-treated with poly-L-lysine to promote adhesion. The plated cells were incubated with [^61Cu]Cu-NODAGA-PSMA I&T (100 μL, 0.5 nM) at 37° C. For non-specific uptake measurement, 100 μL of 2-PMPA (10 μM) was added to some wells. After 1 h, the cell-released fraction was collected by removing the medium and washing it twice with PBS. Then, the cells were incubated at 37° C. in a fresh medium for up to 180 min. At each time point, the medium was removed and replaced by fresh pre-warmed (37° C.) medium. At the end of the experiment, the cells were detached with 1 M sodium hydroxide and collected to determine the remaining cell-binding [^61Cu]Cu-NODAGA-PSMA I&T. The different fractions were quantified using a γ-counter (Cobra II, Packard A Canberra) and represented as a percentage of the applied radioactivity.
The experiment was also performed in the presence of a competitor (100-fold excess DOTAGA-PSMA I&T) to obtain a “rebinding free” system. The presence of the competitor prevented any rebinding of [^61Cu]Cu-NODAGA-PSMA I&T that dissociates faster. The values were calculated as a percentage of the cell-associated fraction (surface-bound and internalized fraction), subtracting the non-specific uptake (measured in the presence of 10 μM 2-PMPA).

LNCaP xenografted mice [1] = assay: Biodistribution studies in LNCaP xenografted mice; format: in vivo
Description: (§1) Unless otherwise specified, the in vivo studies were performed on athymic nude Foxn1^nu 4-6-week-old mice. Animals were injected in the shoulder with LNCaP cells (10^7 cells/200 μL) suspended in 1:1 (v: v) EMEM EBS medium and Matrigel. The in vivo experiments were performed when tumors reached a volume between 100-500 mm^3. At the intervention, all mice were between 7 and 11 weeks old. All animal experiments were performed following the guidelines for the use of living animals in scientific studies and the Swiss regulations for the protection of animals.
Quantitative biodistribution studies were performed on LNCaP xenografted mice to determine the distribution of [^61Cu]Cu-NODAGA-PSMA I&T following i.v. injection into the tail vein. The dose of the administered radiopharmaceutical was between 1.5-3.5 MBq ([…]) diluted to 100 μL with saline solution. The mice were divided into two groups of eight (5 males and 3 females) and euthanized at 1- and 4-hours post-injection. The organs of interest were then collected, rinsed, blotted, weighed, and analyzed in a gamma counter. The results were expressed as the percentage of injected activity per gram of tissue (% IA/g) and reported as mean±standard deviation in Table 25.

LNCaP xenografted mice [2] = assay: PET/CT imaging in mice; format: in vivo
Description: as §1
LNCap xenografted mice were injected i.v. into the tail vein with 4-8 MBq (400 pmol) of [^61Cu]Cu-NODAGA-PSMA I&T diluted in 100 μL saline solution. Dynamic PET scans were acquired for 1 hour upon injection of the radiotracer. The mice were euthanized using carbon dioxide at 4 hours post-injection, the bladder was mechanically emptied, and static PET scans were acquired for 30 min. PET images were obtained using the β-CUBE PET scanner system (MOLECUBES, Gent, Belgium) and were decay corrected and reconstructed with the VivoQuant software version 4.0. Tomograms and helical CT scans of the whole mouse were first acquired using a NanoSPECT/CTTM scanner (Bioscan Inc.). CT images were reconstructed using CTReco (version r1.146), resulting in a pixel size of 0.2 mm. […]

With `O=C([O-])CN1CCN(CC(=O)[O-])CCN([C@H](CCC(=O)N[C@H](Cc2ccc(O)c(I)c2)C(=O)N[C@H](Cc2ccccc2)C(=O)N[C@H](CCCCNC(=O)CCCCCCC(=O)NCCCC[C@H](NC(=O)N[C@@H](CCC(=O)O)C(=O)O)C(=O)O)C(=O)O)C(=O)O)CC1.[61Cu+2]` [[^61Cu]Cu-NODAGA-PSMA I&T] the “Cell-associated fraction, Without competitor” value (LNCaP cells; 10 min) was 83.8 ± 0.7%, the “Cell-associated fraction, With competitor” value (LNCaP cells; 10 min) was 67.9 ± 1.1% and the “Cell-associated fraction, Without competitor” value (LNCaP cells; 20 min) was 73.5 ± 0.8%. For the same compound, the “Cell-associated fraction, With competitor” value (LNCaP cells; 20 min) was 54.4 ± 0.7%, the “Cell-associated fraction, Without competitor” value (LNCaP cells; 30 min) was 65.2 ± 1.4% and the “Cell-associated fraction, With competitor” value (LNCaP cells; 30 min) was 46.5 ± 0.4%. For the same compound, the “Cell-associated fraction, Without competitor” value (LNCaP cells; 45 min) was 57.0 ± 2.8%, the “Cell-associated fraction, With competitor” value (LNCaP cells; 45 min) was 39.9 ± 0.6% and the “Cell-associated fraction, Without competitor” value (LNCaP cells; 60 min) was 51.3 ± 3.3%. For the same compound, the “Cell-associated fraction, With competitor” value (LNCaP cells; 60 min) was 35.9 ± 0.9%, the “Cell-associated fraction, Without competitor” value (LNCaP cells; 90 min) was 45.0 ± 3.3% and the “Cell-associated fraction, With competitor” value (LNCaP cells; 90 min) was 29.9 ± 1.1%. For the same compound, the “Cell-associated fraction, Without competitor” value (LNCaP cells; 120 min) was 40.0 ± 3.5%, the “Cell-associated fraction, With competitor” value (LNCaP cells; 120 min) was 25.0 ± 0.5% and the “Cell-associated fraction, Without competitor” value (LNCaP cells; 150 min) was 35.4 ± 3.1%. The “Cell-associated fraction, With competitor” value (LNCaP cells; 150 min) was 20.9 ± 0.4%, the “Cell-associated fraction, Without competitor” value (LNCaP cells; 180 min) was 31.5 ± 2.5% and the “Cell-associated fraction, With competitor” value (LNCaP cells; 180 min) was 17.5 ± 0.5%. For the same compound, the “Biodistribution, Adrenal” value (LNCaP xenografted mice [1]; 1 hour post-injection) was 17.3±3.26 % IA/g, the “Biodistribution, Blood” value (LNCaP xenografted mice [1]; 1 hour post-injection) was 0.28 ± 0.06 % IA/g and the “Biodistribution, Bone” value (LNCaP xenografted mice [1]; 1 hour post-injection) was 2.73 ± 0.91 % IA/g. The “Biodistribution, Heart” value (LNCaP xenografted mice [1]; 1 hour post-injection) was 0.45 ± 0.15 % IA/g, the “Biodistribution, Intestine” value (LNCaP xenografted mice [1]; 1 hour post-injection) was 2.11 ± 0.78 % IA/g and the “Biodistribution, Kidneys” value (LNCaP xenografted mice [1]; 1 hour post-injection) was 118±13 % IA/g. For the same compound, the “Biodistribution, LNCaP-tumor” value (LNCaP xenografted mice [1]; 1 hour post-injection) was 14.0±5.0 % IA/g, the “Biodistribution, Liver” value (LNCaP xenografted mice [1]; 1 hour post-injection) was 1.02 ± 0.28 % IA/g and the “Biodistribution, Lung” value (LNCaP xenografted mice [1]; 1 hour post-injection) was 1.69 ± 0.45 % IA/g. For the same compound, the “Biodistribution, Muscle” value (LNCaP xenografted mice [1]; 1 hour post-injection) was 1.12 ± 0.32 % IA/g, the “Biodistribution, Pancreas” value (LNCaP xenografted mice [1]; 1 hour post-injection) was 0.97 ± 0.36 % IA/g and the “Biodistribution, Salivary glands” value (LNCaP xenografted mice [1]; 1 hour post-injection) was 2.01±0.33 % IA/g. The “Biodistribution, Spleen” value (LNCaP xenografted mice [1]; 1 hour post-injection) was 6.04±1.87 % IA/g, the “Biodistribution, Stomach” value (LNCaP xenografted mice [1]; 1 hour post-injection) was 1.13 ± 0.20 % IA/g and the Tumor/Blood uptake ratio (LNCaP xenografted mice [1]; 1 hour post-injection) was 50. It also gave a Tumor/Kidney uptake ratio (LNCaP xenografted mice [1]; 1 hour post-injection) of 0.12, a Tumor/Liver uptake ratio (LNCaP xenografted mice [1]; 1 hour post-injection) of 14 and a Tumor/Muscles uptake ratio (LNCaP xenografted mice [1]; 1 hour post-injection) of 13. The “Tumor/Salivary gland uptake ratio” value (LNCaP xenografted mice [1]; 1 hour post-injection) was 7, the “Biodistribution, Adrenal” value (LNCaP xenografted mice [1]; 4 hours post-injection) was 8.32±2.87 % IA/g and the “Biodistribution, Blood” value (LNCaP xenografted mice [1]; 4 hours post-injection) was 0.10±0.03 % IA/g. For the same compound, the “Biodistribution, Bone” value (LNCaP xenografted mice [1]; 4 hours post-injection) was 1.34 ± 0.48 % IA/g, the “Biodistribution, Heart” value (LNCaP xenografted mice [1]; 4 hours post-injection) was 0.22 ± 0.05 % IA/g and the “Biodistribution, Intestine” value (LNCaP xenografted mice [1]; 4 hours post-injection) was 1.06 ± 0.50 % IA/g. The “Biodistribution, Kidneys” value (LNCaP xenografted mice [1]; 4 hours post-injection) was 91±10 % IA/g, the “Biodistribution, LNCaP-tumor” value (LNCaP xenografted mice [1]; 4 hours post-injection) was 10.7±3.3 % IA/g and the “Biodistribution, Liver” value (LNCaP xenografted mice [1]; 4 hours post-injection) was 0.72 ± 0.11 % IA/g. For the same compound, the “Biodistribution, Lung” value (LNCaP xenografted mice [1]; 4 hours post-injection) was 0.74 ± 0.19 % IA/g, the “Biodistribution, Muscle” value (LNCaP xenografted mice [1]; 4 hours post-injection) was 0.50 ± 0.22 % IA/g and the “Biodistribution, Pancreas” value (LNCaP xenografted mice [1]; 4 hours post-injection) was 0.45 ± 0.09 % IA/g. For the same compound, the “Biodistribution, Salivary glands” value (LNCaP xenografted mice [1]; 4 hours post-injection) was 0.52±0.06 % IA/g, the “Biodistribution, Spleen” value (LNCaP xenografted mice [1]; 4 hours post-injection) was 1.28 ± 0.39 % IA/g and the “Biodistribution, Stomach” value (LNCaP xenografted mice [1]; 4 hours post-injection) was 0.66 ± 0.15 % IA/g. It also gave a Tumor/Blood uptake ratio (LNCaP xenografted mice [1]; 4 hours post-injection) of 107, a Tumor/Kidney uptake ratio (LNCaP xenografted mice [1]; 4 hours post-injection) of 0.12 and a Tumor/Liver uptake ratio (LNCaP xenografted mice [1]; 4 hours post-injection) of 15. The Tumor/Muscles uptake ratio (LNCaP xenografted mice [1]; 4 hours post-injection) was 21, the “Tumor/Salivary gland uptake ratio” value (LNCaP xenografted mice [1]; 4 hours post-injection) was 21 and the “time of maximum accumulation in the tumor” value (LNCaP xenografted mice [2]) was 1 hour post-injection. The “time of optimal tumor-to-background signal ratio” value (LNCaP xenografted mice [2]) was 4 hours post-injection.
